Test [1] addresses CA (Human immunodeficiency virus type 1 group M subtype B, UniProt P12493). In words: mass action calculation of CAP-1 bound to CA/Gag in immature virions. Also noted: species or system HIV-1. Here is the method: This is likely due to the high local concentration of Gag molecules in assembled virions (14 mM), which favors binding by ligands with even modest affinities, e.g., N-(3-chloro-4-methylphenyl)-N′-[2-[([5-[(dimethylamino)-methyl]-2-furyl]-methyl)-sulfanyl]ethyl]urea (CAP-1).
Thus conservatively assuming that cytosolic drug concentrations in the budding virus and cells are equal (100 μM), the percentage of viral CAP-1 molecules bound to CA can be estimated by standard mass action calculations which affords a value for the concentration of bound CAP-1 ([CA:CAP-1]) of 94 μM.

Test [2] addresses T1, HIV-1 capsid protein (Human immunodeficiency virus type 1 group M subtype B, UniProt P12493).
T1 construct: aqueous solutions containing recombinant, ^15N-labeled HIV-1 capsid protein
Kind of test: biochemical. The class given is binding.
Experimental: Capsid protein ligands are also evaluated by NMR to determine their equilibrium dissociation constant from the capsid binding site.
Concentrated DMSO-d6 solutions of test compounds are prepared for NMR analysis. 2D ^1H-^15N HSQC NMR spectra are obtained for aqueous solutions containing recombinant, ^15N-labeled HIV-1 capsid protein and 10 microliters of added test compound. Data is obtained using a 600 MHz NMR instrument equipped with a cryoprobe. […] Binding is indicated by perturbation relative to capsid protein alone (^1HN δδ>0.1 ppm; ^15N δδ>0.5 ppm) of the chemical shifts of the following residues: Glu29, Lys30, Ala31, Phe32, Ser33, Glu35, Val36, Val59, Gly60, Gly61, His62, Gln63, Ala65, Met144 and Tyr145, all located at or near the apex of a helical bundle (helices 1, 2, 3, 4 and 7).
Equilibrium dissociation constants are calculated from 2D NMR data of selected capsid ligands. […] The chemical shift changes of perturbed by test compound binding are fit to 1:1 binding isotherms.

We go through one compound from patent publication US7183300B2, “Inhibitors of HIV-1 capsid formation: substituted aryl aminomethyl thiazole ureas and analogues thereof” (priority 2004, dated 2007).

Regarding `Cc1ccc(NC(=O)NCCSCc2ccc(CN(C)C)o2)cc1Cl` [CAP-1, N-(3-chloro-4-methylphenyl)-N′-[2-[([5-[(dimethylamino)-methyl]-2-furyl]-methyl)-sulfanyl]ethyl]urea], the “CAP-1 molecules in immature virions bound to Gag” value in test [1] (100 μM dose) is listed as 94%. In test [1] (assuming drug concentration 100 μM, Gag in assembled virions 14 mM), the “concentration of bound CAP-1 ([CA:CAP-1])” value was 94 µM. Binding in test [2] was put at a Kd of 820 ± 180 µM. Moreover, the “binding to the HIV-1 capsid protein (HSQC chemical shift perturbation)” value in test [2] (recombinant 15N-labeled HIV-1 capsid protein) was “site-specific binding”.
